From ChEMBL document CHEMBL1156063, “Design of new antifungal agents: synthesis and evaluation of 1-[(1H-indol-5-ylmethyl)amino]-2-phenyl-3-(1H-1,2,4-triazol-1-yl)propan-2-ols” (2009)
≈ marks a conversion by molar mass, not a printed value. Calls of active or inactive are those of the source. No cut-off for these calls is given here.

Assays:
Assay type in all cases: functional
Aspergillus fumigatus = assay: Antifungal activity against Aspergillus fumigatus AF98003
Candida albicans [1] = assay: Antifungal activity against Candida albicans CA98001
Nakaseomyces glabratus = assay: Antifungal activity against fluconazole-resistant Candida glabrata CG468
Candida albicans [2] = assay: Antifungal activity against fluconazole-resistant Candida albicans CA284
Candida parapsilosis [3] = assay: Antifungal activity against fluconazole-resistant Candida parapsilosis Rolland; conditions: Lodderomyces parapsilosis
Candida albicans [4] = assay: Antifungal activity against fluconazole-resistant Candida albicans CA424
Pichia kudriavzevii [5] = assay: Antifungal activity against fluconazole low-sensitive Candida krusei CK8
Pichia kudriavzevii [6] = assay: Antifungal activity against fluconazole-resistant Candida krusei CK506
Candida parapsilosis [7] = assay: Antifungal activity against fluconazole-resistant Candida parapsilosis Houdeau; conditions: Lodderomyces parapsilosis

## CN(Cc1ccc2c(ccn2C(=O)OC(C)(C)C)c1)CC(O)(Cn1cncn1)c1ccc(F)cc1F (stereo unspecified)
Aspergillus fumigatus
  MIC: inactive
Candida albicans [1]
  MIC: 0.06 µg/mL (≈ 0.121 µM)

## CCC(C)n1ncn(-c2ccc(N3CCN(c4ccc(OCC5COC(Cn6cncn6)(c6ccc(Cl)cc6Cl)O5)cc4)CC3)cc2)c1=O (stereo unspecified) [ITRACONAZOLE]
Aspergillus fumigatus
  MIC: 0.42 µg/mL (≈ 0.595 µM)

## OC(CNCc1ccc2[nH]ccc2c1)(Cn1cncn1)c1ccc(Cl)cc1Cl (stereo unspecified)
Aspergillus fumigatus
  MIC: inactive
Candida albicans [1]
  MIC: 0.031 µg/mL (≈ 0.0745 µM)

## CN(Cc1ccc2c(ccn2C(=O)c2ccccc2)c1)CC(O)(Cn1cncn1)c1ccc(F)cc1F (stereo unspecified)
Aspergillus fumigatus
  MIC: inactive
Candida albicans [1]
  MIC: 0.032 µg/mL (≈ 0.0638 µM)

## O=C(c1ccccc1)n1ccc2cc(CNCC(O)(Cn3cncn3)c3ccc(F)cc3F)ccc21 (stereo unspecified)
Aspergillus fumigatus
  MIC: inactive
Candida albicans [1]
  MIC: 0.027 µg/mL (≈ 0.0554 µM)

## O=C(c1ccccc1)n1ccc2cc(CNCC(O)(Cn3cncn3)c3ccc(Cl)cc3Cl)ccc21 (stereo unspecified)
Aspergillus fumigatus
  MIC: inactive
Candida albicans [1]
  MIC: 0.031 µg/mL (≈ 0.0596 µM)

## OC(Cn1cncn1)(Cn1cncn1)c1ccc(F)cc1F [FLUCONAZOLE]
Nakaseomyces glabratus
  MIC: > 64 µg/mL
Candida albicans [2]
  MIC: > 64 µg/mL
Candida parapsilosis [3]
  MIC: > 64 µg/mL
Candida albicans [4]
  MIC: > 64 µg/mL
Pichia kudriavzevii [5]
  MIC: 19 µg/mL (≈ 62 µM)
Pichia kudriavzevii [6]
  MIC: > 64 µg/mL
Candida albicans [1]
  MIC: 0.19 µg/mL (≈ 0.62 µM)
Candida parapsilosis [7]
  MIC: > 64 µg/mL

## CC(C)(C)OC(=O)n1ccc2cc(CNCC(O)(Cn3cncn3)c3ccc(F)cc3F)ccc21 (stereo unspecified)
Nakaseomyces glabratus
  MIC: 12 µg/mL (≈ 24.8 µM)
Candida albicans [2]
  MIC: 32 µg/mL (≈ 66.2 µM)
Candida parapsilosis [3]
  MIC: 19 µg/mL (≈ 39.3 µM)
Aspergillus fumigatus
  MIC: inactive
Candida albicans [4]
  MIC: 33 µg/mL (≈ 68.2 µM)
Pichia kudriavzevii [5]
  MIC: 3.8 µg/mL (≈ 7.86 µM)
Pichia kudriavzevii [6]
  MIC: 27 µg/mL (≈ 55.8 µM)
Candida albicans [1]
  MIC: 0.003 µg/mL (≈ 0.0062 µM)
Candida parapsilosis [7]
  MIC: 24 µg/mL (≈ 49.6 µM)

## CC(C)(C)OC(=O)n1ccc2cc(CNCC(O)(Cn3cncn3)c3ccc(Cl)cc3Cl)ccc21 (stereo unspecified)
Aspergillus fumigatus
  MIC: inactive
Candida albicans [1]
  MIC: 0.039 µg/mL (≈ 0.0755 µM)

## CN(Cc1ccc2[nH]ccc2c1)CC(O)(Cn1cncn1)c1ccc(F)cc1F (stereo unspecified)
Aspergillus fumigatus
  MIC: inactive
Candida albicans [1]
  MIC: 0.035 µg/mL (≈ 0.0881 µM)

## CN(Cc1ccc2[nH]cc(C(=O)C(F)(F)F)c2c1)CC(O)(Cn1cncn1)c1ccc(F)cc1F (stereo unspecified)
Aspergillus fumigatus
  MIC: inactive
Candida albicans [1]
  MIC: 0.064 µg/mL (≈ 0.13 µM)

## OC(CNCc1ccc2[nH]ccc2c1)(Cn1cncn1)c1ccc(F)cc1F (stereo unspecified)
Aspergillus fumigatus
  MIC: inactive
Candida albicans [1]
  MIC: 0.034 µg/mL (≈ 0.0887 µM)
